Structures are written as SMILES.

Consider five compounds from patent publication US10391089B2, “PRMT5 inhibitors and uses therof” (Epizyme, Inc., priority 2012, dated 2019).

This assay has as its system symmetric di-methyl arginine in Z-138 cells. Kind of assay: Z-138 Methylation Assay (In Cell Western for symmetric di-methyl arginine and DNA content). Format: cell-based. The settings on record: Homo sapiens; Z-138 methylation In Cell Western; read-out: ICW EC50. The source says: [formula] [formula] Where top and bottom are the normally allowed to float, but may be fixed at 100 or 0 respectively in a 3-parameter fit. The Hill Coefficient normally allowed to float but may also be fixed at 1 in a 3-parameter fit. Y is the % inhibition and X is the compound concentration.
RPMI/Glutamax medium, penicillin-streptomycin, heat inactivated fetal bovine serum, and D-PBS were purchased from Life Technologies, Grand Island, N.Y., USA. Odyssey blocking buffer, 800CW goat anti-rabbit IgG (H+L) antibody, and Licor Odyssey infrared scanner were purchased from Licor Biosciences, Lincoln, Nebr., USA. Symmetric di-methyl arginine antibody was purchased from EMD Millipore, Billerica, Mass., USA. 16% Paraformaldehyde was purchased from Electron Microscopy Sciences, Hatfield, Pa., USA.
Cell Treatment, in Cell Western (ICW) for Detection of Symmetric Di-Methyl Arginine and DNA Content.
Z-138 cells were seeded in assay medium at a concentration of 50,000 cells per mL to a 384-well cell culture plate with 50 μL per well. Compound (100 nL) from 384 well source plates was added directly to 384 well cell plate. Plates were incubated at 37° C., 5% CO2 for 96 hours. […] Plates were incubated at room temperature for 30 minutes then incubated at 37° C., 5% CO2 for 5 hours. After the incubation, 40 μL per well of 8% paraformaldehyde in PBS (16% paraformaldahyde was diluted to 8% in PBS) was added to each plate and incubated for 30 minutes. […] Next 30 μL per well of Odyssey blocking buffer were added to each plate and incubated 1 hour at room temperature. Blocking buffer was removed and 20 μL per well of primary antibody was added (symmetric di-methyl arginine diluted 1:100 in Odyssey buffer with 0.1% Tween 20 (v/v)) and plates were incubated overnight (16 hours) at 4° C. Plates were washed 5 times with 100 μL per well of wash buffer. Next 20 μL per well of secondary antibody was added (1:200 800CW goat anti-rabbit IgG (H+L) antibody, 1:1000 DRAQ5 (Biostatus limited) in Odyssey buffer with 0.1% Tween 20 (v/v)) and incubated for 1 hour at room temperature. The plates were washed 5 times with 100 μL per well wash buffer then 1 time with 100 μL per well of water. Plates were allowed to dry at room temperature then imaged on the Licor Odyssey machine which measures integrated intensity at 700 nm and 800 nm wavelengths. Both 700 and 800 channels were scanned.
First, the ratio for each well was determined by:
Each plate included fourteen control wells of DMSO only treatment (minimum inhibition) as well as fourteen control wells for maximum inhibition treated with 3 μM of a reference compound (Background wells). The average of the ratio values for each control type was calculated and used to determine the percent inhibition for each test well in the plate. Reference compound was serially diluted three-fold in DMSO for a total of nine test concentrations, beginning at 3 μM. Percent inhibition was determined and IC50 curves were generated using triplicate wells per concentration of compound.

In the case of `O=C(NC[C@H](O)CN1CCc2ccccc2C1)c1cccc2ccccc12` [Compound 295], the EC50 fell in the range of 101 to 1000 nM. Then `O=C(NC[C@H](O)CN1CCc2ccccc2C1)c1cncc(NC2CCN(CC(F)(F)F)C2)c1` (some centres unmarked) [Compound 303], with under 100 nM. Turning to `O=C(NC[C@H](O)CN1CCc2ccccc2C1)c1cncc(NC2COC2)c1` [Compound 299], the concentration giving a half-maximal response (EC50) was under 100 nM. As for `CS(=O)(=O)N1CCC(Oc2cncc(C(=O)NC[C@H](O)CN3CCc4ccccc4C3)c2)CC1` [Compound 290], the concentration giving a half-maximal response (EC50) was under 100 nM.

For the compound `CN1CCC(Oc2cncc(C(=O)NC[C@H](O)CN3CCc4ccccc4C3)c2)CC1` [Compound 288], the EC50 fell in the range of 101 to 1000 nM.
